molecular target: T1, human full-length glucocorticoid receptor (Homo sapiens, UniProt P04150); experiment: GR binding Assay II (fluorescence polarization competitor assay); conditions: given where AP-1 EC50 is greater than 1 uM and/or maximal inhibition is less than 20%; read-out: GR (Ki, nM) (measured in GR binding Assay II)
T1 construct: recombinantly expressed human full-length glucocorticoid receptor; purchased PanVera Co., Madison, Wis; P2816
T1 sequence (P04150 1-777): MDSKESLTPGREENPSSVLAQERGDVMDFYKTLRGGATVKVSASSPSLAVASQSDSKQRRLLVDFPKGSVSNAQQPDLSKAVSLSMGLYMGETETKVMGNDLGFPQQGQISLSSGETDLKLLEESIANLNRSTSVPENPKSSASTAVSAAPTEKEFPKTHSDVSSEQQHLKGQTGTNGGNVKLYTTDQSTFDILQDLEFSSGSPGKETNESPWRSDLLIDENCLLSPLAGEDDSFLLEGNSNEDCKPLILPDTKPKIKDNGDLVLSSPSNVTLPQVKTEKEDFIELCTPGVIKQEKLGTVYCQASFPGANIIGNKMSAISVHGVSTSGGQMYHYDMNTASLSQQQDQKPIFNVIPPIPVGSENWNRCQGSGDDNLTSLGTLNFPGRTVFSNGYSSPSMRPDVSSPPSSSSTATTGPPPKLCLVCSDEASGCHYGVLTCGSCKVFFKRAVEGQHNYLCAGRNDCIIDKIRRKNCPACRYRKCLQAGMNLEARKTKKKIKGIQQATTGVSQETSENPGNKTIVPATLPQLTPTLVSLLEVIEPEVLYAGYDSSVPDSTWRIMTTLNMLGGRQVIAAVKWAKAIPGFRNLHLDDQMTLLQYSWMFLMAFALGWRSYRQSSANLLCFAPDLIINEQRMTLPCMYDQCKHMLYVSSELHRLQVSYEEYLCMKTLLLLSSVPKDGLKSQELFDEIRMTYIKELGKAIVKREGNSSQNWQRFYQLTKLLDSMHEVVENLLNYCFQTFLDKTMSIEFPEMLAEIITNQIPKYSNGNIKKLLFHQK
Protocol: Glucocorticoid Receptor Binding Assay (II)
In order to measure the binding of compounds on the glucocorticoid receptor a commercially available kit was used (Glucocorticoid receptor competitor assay kit, PanVera Co., Madison, Wis., P2816). Briefly, a cell lysate containing recombinantly expressed human full-length glucocorticoid receptor was mixed with a fluorescently labeled glucocorticoid (1 nM Fluormone GS1) in the presence or absence of test compound. After one hour at room temperature, the fluorescence polarization (FP) of the samples were measured. The FP of a mixture of receptor, fluorescent probe (i.e. Fluormone GS1) and 1 mM dexamethasone represented background fluorescence or 100% inhibition, whereas, the FP of the mixture without dexamethasone was taken to be 100% binding. The percentage inhibition of test molecules were then compared to the sample with 1 mM dexamethasone and expressed as % relative binding activity with dexamethasone being 100% and no inhibition is 0%. Test molecules were analyzed in the concentration range from 2.4 nM to 40 microMolar.

Compared with `CC(C)(C(=O)Nc1nncs1)C1c2ccncc2Oc2nc(-c3ccc(C(=O)N4CCOCC4)cc3)ccc21` (stereo not shown) [Example 2, 2-methyl-2-(2-(4-(4-morpholinylcarbonyl)phenyl)-5H-pyrido[4′,3′:5,6]pyrano[2,3-b]pyridin-5-yl)-N-1,3,4-thiadiazol-2-ylpropanamide], `CN(C)C(=O)c1ccc(-c2ccc3c(n2)Oc2nc(N4CCOCC4)ccc2C3C(C)(C)C(=O)Nc2nncs2)cc1` (stereo not shown) [Example 69, 4-(5-(1,1-dimethyl-2-oxo-2-(1,3,4-thiadiazol-2-ylamino)ethyl)-8-(4-morpholinyl)-5H-pyrido[3′,2′:5,6]pyrano[2,3-b]pyridin-2-yl)-N,N-dimethylbenzamide] is 2.9-fold lower in Ki: 199 nM for the first, 68.9 nM for the second.

`CC(C)(C(=O)Nc1nnc(C(=O)NC2CC2)s1)C1c2cccnc2Oc2nc(-c3ccc(C(=O)N4CCOCC4)cc3)ccc21` (stereo not shown) [Example 6] and `CCN(C)C(=O)c1ccc(-c2ccc3c(n2)Oc2ncccc2C3C(C)(C)C(=O)Nc2nnc(C(=O)NC3CC3)s2)cc1` (stereo not shown) [Example 7] are within 1.5-fold of each other in Ki: 59 nM for the first, 65.6 nM for the second.

Compared with `Cc1ccc2c(n1)Oc1nc(Cl)ccc1C2C(C)(C)C(=O)Nc1nncs1` (stereo not shown) [Example 19], `CSc1ccc(-c2ccc3c(n2)Oc2nc(C)ccc2[C@@H]3C(C)(C)C(=O)Nc2nncs2)cc1` [Example 29] is 14-fold lower in Ki: 269 nM for the first, 18.9 nM for the second. The second binds more tightly here.

Compared with `Cc1ccc2c(n1)Oc1nc(-c3ccc(Oc4ccccc4)cc3)ccc1[C@H]2C(C)(C)C(=O)Nc1nncs1` [Example 23], `Cc1ccc2c(n1)Oc1nc(-c3ccc(OC(F)(F)F)cc3)ccc1[C@H]2C(C)(C)C(=O)Nc1nncs1` [Example 24] is 1.7-fold lower in Ki: 4.59 nM for the first, 2.66 nM for the second. The second binds more tightly here.

First: Cc1ccc2c(n1)Oc1nc(-c3ccc(S(=O)(=O)N(C)C)cc3)ccc1[C@H]2C(C)(C)C(=O)Nc1nncs1 [Example 25]
Second: Cc1ccc2c(n1)Oc1nc(-c3ccc(S(C)(=O)=O)cc3)ccc1[C@H]2C(C)(C)C(=O)Nc1nncs1 [Example 37, 2-methyl-2-((5S)-2-methyl-8-(4-(methylsulfonyl)phenyl)-5H-pyrido[3′,2′:5,6]pyrano[2,3-b]pyridin-5-yl)-N-1,3,4-thiadiazol-2-ylpropanamide]
The Ki of the first is 2.2-fold higher: 172 nM for the first, 78.9 nM for the second. The second binds more tightly here.

Compared with `Cc1ccc2c(n1)Oc1nc(-c3ccc(C(=O)NC(C)(C)C)cc3)ccc1[C@H]2C(C)(C)C(=O)Nc1nncs1` [Example 26], `Cc1ccc2c(n1)Oc1nc(-c3ccc(OC(C)(C)C)cc3)ccc1[C@H]2C(C)(C)C(=O)Nc1nncs1` [Example 79] is 15-fold lower in Ki: 591 nM for the first, 40.5 nM for the second.

Going from `Cc1ccc2c(n1)Oc1nc(-c3ccc(C(=O)N4CCCC4)c(F)c3)ccc1[C@H]2C(C)(C)C(=O)Nc1nncs1` [Example 28] to `Cc1ccc2c(n1)Oc1nc(-c3ccc(C(=O)N4CCC(F)(F)C4)c(F)c3)ccc1[C@H]2C(C)(C)C(=O)Nc1nncs1` [Example 39], the Ki rises from 14.2 nM to 38.2 nM (2.7-fold). The first binds more tightly here.

Going from `Cc1ccc2c(n1)Oc1nc(-c3ccc(C(=O)N(C)C)cc3)ccc1[C@H]2C(C)(C)C(=O)Nc1nnc(C(=O)NC2CC2)s1` [Example 43] to `CNC(=O)c1nnc(NC(=O)C(C)(C)[C@H]2c3ccc(C)nc3Oc3nc(-c4ccc(C(=O)N(C)C)cc4)ccc32)s1` [Example 45], the Ki rises from 11.6 nM to 134 nM (12-fold). The first binds more tightly here.

Going from `CCN(C)C(=O)c1ccc(-c2ccc3c(n2)Oc2nc(C)ccc2[C@@H]3C(C)(C)C(=O)Nc2nnc(C(=O)N(C)C)s2)cc1` [Example 47] to `CCN(C)C(=O)c1ccc(-c2ccc3c(n2)Oc2nc(C)ccc2[C@@H]3C(C)(C)C(=O)Nc2nnc(C(=O)NCCO)s2)cc1` [Example 85], the Ki falls from 149 nM to 67.2 nM (2.2-fold). The second binds more tightly here.

Going from `CNC(=O)c1cnc(NC(=O)C(C)(C)[C@H]2c3ccc(C)nc3Oc3nc(-c4ccc(C(=O)N(C)C)cc4)ccc32)s1` [Example 51] to `Cc1ccc2c(n1)Oc1nc(-c3ccc(C(=O)N(C)C)cc3)ccc1[C@H]2C(C)(C)C(=O)Nc1ncc(C(=O)NC2CC2)s1` [Example 53], the Ki falls from 423 nM to 106 nM (4-fold). The second binds more tightly here.

First: Cc1ccc2c(n1)Oc1nc(-c3ccc(C(=O)N(C)C)cc3)ccc1[C@H]2C(C)(C)C(=O)Nc1ncc(C(=O)N2CCOCC2)s1 [Example 52]
Second: Cc1ccc2c(n1)Oc1nc(-c3ccc(C(=O)N4CCOCC4)cc3)ccc1[C@H]2C(C)(C)C(=O)Nc1nnn(C)n1 [Example 92, 2-methyl-2-((5S)-2-methyl-8-(4-(4-morpholinylcarbonyl)phenyl)-5H-pyrido[3′,2′:5,6]pyrano[2,3-b]pyridin-5-yl)-N-(2-methyl-2H-tetrazol-5-yl)propanamide]
The Ki of the first is 2.7-fold higher: 411 nM for the first, 153 nM for the second.

First: C=Cc1ccc2c(n1)Oc1nc(-c3ccc(C(=O)N(C)C)cc3)ccc1C2C(C)(C)C(=O)Nc1nncs1 (stereo not shown) [Example 64, 4-(5-(1,1-dimethyl-2-oxo-2-(1,3,4-thiadiazol-2-ylamino)ethyl)-8-vinyl-5H-pyrido[3′,2′:5,6]pyrano[2,3-b]pyridin-2-yl)-N,N-dimethylbenzamide]
Second: CN(C)C(=O)c1ccc(-c2ccc3c(n2)Oc2nc(N4CCCC4)ccc2C3C(C)(C)C(=O)Nc2nncs2)cc1 (stereo not shown) [Example 70, 4-(5-(1,1-dimethyl-2-oxo-2-(1,3,4-thiadiazol-2-ylamino)ethyl)-8-(1-pyrrolidinyl)-5H-pyrido[3′,2′:5,6]pyrano[2,3-b]pyridin-2-yl)-N,N-dimethylbenzamide]
The Ki of the first is 4.8-fold lower: 80.8 nM for the first, 385 nM for the second.

First: CN(C)C(=O)c1ccc(-c2ccc3c(n2)Oc2nc(-c4ccccc4)ccc2C3C(C)(C)C(=O)Nc2nncs2)cc1 (stereo not shown) [Example 65, 4-(5-(1,1-dimethyl-2-oxo-2-(1,3,4-thiadiazol-2-ylamino)ethyl)-8-phenyl-5H-pyrido[3′,2′:5,6]pyrano[2,3-b]pyridin-2-yl)-N,N-dimethylbenzamide]
Second: CCN(C)C(=O)c1ccc(-c2ccc3c(n2)Oc2c(ccc[n+]2[O-])C3C(C)(C)C(=O)Nc2nncs2)cc1 (stereo not shown) [Example 84, 4-(5-(1,1-dimethyl-2-oxo-2-(1,3,4-thiadiazol-2-ylamino)ethyl)-9-oxido-5H-pyrido[3′,2′:5,6]pyrano[2,3-b]pyridin-2-yl)-N-ethyl-N-methylbenzamide]
The Ki of the first is 1.8-fold lower: 657 nM for the first, 1150 nM for the second. The first binds more tightly here.

Going from `Cc1ccc2c(n1)Oc1nc(-c3ccc(OC(C)C)nc3)ccc1[C@H]2C(C)(C)C(=O)Nc1nncs1` [Example 74] to `Cc1ccc2c(n1)Oc1nc(-c3ccc(CC(C)C)cc3)ccc1[C@H]2C(C)(C)C(=O)Nc1nncs1` [Example 77], the Ki falls from 27.6 nM to 2.53 nM (11-fold). The second binds more tightly here.

First: Cc1ccc2c(n1)Oc1nc(-c3ccc(OC4CCCC4)cc3)ccc1[C@H]2C(C)(C)C(=O)Nc1nncs1 [Example 75]
Second: Cc1ccc2c(n1)Oc1nc(-c3ccc(CN4CCCC4)cc3)ccc1[C@H]2C(C)(C)C(=O)Nc1nncs1 [Example 80]
The Ki of the first is 85-fold lower: 13.5 nM for the first, 1150 nM for the second. The first binds more tightly here.

First: CCSc1ccc(-c2ccc3c(n2)Oc2nc(C)ccc2[C@@H]3C(C)(C)C(=O)Nc2nncs2)cc1 [Example 78]
Second: Cc1ccc2c(n1)Oc1nc(-c3ccc(S(=O)(=O)C(C)C)cc3)ccc1[C@H]2C(C)(C)C(=O)Nc1nncs1 [Example 83]
The Ki of the first is 12-fold lower: 2.15 nM for the first, 25.2 nM for the second. The first binds more tightly here.

`Cc1ccc2c(n1)Oc1nc(-c3ccc(C(=O)N4CCC[C@@H]4C(N)=O)cc3)ccc1[C@H]2C(C)(C)C(=O)Nc1nncs1` [Example 90] and `Cc1ccc2c(n1)Oc1nc(-c3ccc(C(=O)N4CCC[C@@H]4C(N)=O)cc3)ccc1[C@H]2C(C)(C)C(=O)Nc1nnc(C)s1` [Example 91] are within 1.5-fold of each other in Ki: 103 nM for the first, 122 nM for the second.

From patent US8304539B2, “Fused heteroaryl modulators of glucocorticoid receptor, AP-1, and/or NF-κB activity and use thereof” (Bristol-Myers Squibb Company, priority 2008, dated 2012)
